Laboratory results as given in US20080293795A1, “COMBINATION THERAPY WITH PARP INHIBITORS” (ABBOTT LABORATORIES, priority 2006, published 2008).
Like-named read-outs stand apart in the source and are kept apart here.

Assays:
[1] = system: MDA-231-LN-luc cells in the brain striatum; details: for survival to 300% tumor change endpoint: Kaplan-Meier, Logrank, FIG. 23
[2] = system: B16F10 murine melanoma; test: B16F10 murine melanoma, combination with TMZ; format: in vivo, C57BL/6 mice; details: A-861695 25, 12.5 or 3.1 mg/kg/day p.o. b.i.d. + TMZ 62.5 mg/kg/day p.o. q.d. X5; FIG. 2
Procedure: This study was done on mice with B 16F10 murine melanoma. Mice were divided into six treatment groups with 8-10 mice per group. See figure two for treatment groups. B16F10 cells were injected s.c. into C57BL/6 mice on day 0. Dosing was initiated on day one. A-861695 was administered p.o., b.i.d. on days 1-14. On days 3-7 temozolomide (TMZ) was administered p.o., q.d. (for the groups receiving both TMZ and A-861695, TMZ was given two hours after the A-861695 was administered).

[3] = system: MX-1 breast carcinoma xenograft; test: MX-1 breast carcinoma xenograft, combination with carboplatin; format: in vivo, scid mice
Text: This cell line was derived from a person with a poorly differentiated mammary carcinoma.
Data presented in FIG. 4 are mean ±S.E.M. of 8-10 mice per treatment group.

[4] = system: MX-1 breast carcinoma xenograft; test: MX-1 breast carcinoma xenograft, combination with cisplatin; format: in vivo, nude mice; details: FIG. 5
Procedure: In this study the efficacy of A-861695 in combination with cisplatin was evaluated in the MX-1 breast carcinoma xenograft model in nude mice. Tumors were size-matched to 100 mm^3 on day 16 and PARP inhibitor therapy (p.o., b.i.d. x8) was initiated the same day. A single dose of cisplatin at 6.0 mg/kg/day was administered i.p. day 18. Data, shown in FIG. 5, are mean ±S.E.M. of 9 mice per treatment group.

[5] = system: HSB T-cell ALL; JM1 pre-B ALL; P115 primary AML cells; test: TMZ and ABT-888 combinations in leukemia cells (FIGS. 9-11); details: differing amounts of TMZ and ABT-888
[6] = system: MX-1 flank xenograft; details: TMZ at 50 and 12.5 mg/kg/day
Text: All mice were ear tagged. […] At various intervals following tumor cell inoculation, the individual tumor dimensions were serially measured using calibrated microcalipers and the tumor volumes calculated according to the formula V=L×W^2/2 (V:volume, L:length, W:width). Mice were humanely euthanized when the tumor volumes reached a predetermined size.

[7] = system: DoHH-2 flank tumor xenograft; details: for efficacy at reducing the Mean Tumor Volume, alone: single agent
Procedure: Animals were size matched on day 15 to an approximate tumor volume of 503 mm^3.
Group mouse weights were recorded three times a week to monitor for weight loss due to toxicity or excessive tumor burden.

[8] = system: PC3M-Luc human prostate carcinoma; test: Orthotopic PC3M-Luc human prostate carcinoma model (BLI); format: in vivo, male SCID-C.B17 mice; details: vs vehicles, p<0.01
Procedure: Bioluminescent PC-3M-luciferase-C6 osteolytic human prostate cancer cells, constitutively expressing luciferase (Caliper Life Sciences, Hopkinton, Mass.) were orthotopically injected into the prostates of 10-week-old male SCID-C.B17 mice (C.B-17/IcrCrl-scid-BR, Charles River Labs). Mice were housed in a facility with constant humidity, temperature and a 12-h light-dark cycle. Mice were anesthetized with intramuscular injections of ketamine (40 mg/kg) and rompum (5 mg/kg) before surgery. The surgical region was shaved and sterilized with iodine and alcohol swabs. A lower midline incision was made to access the prostate. The left lobe of the dorsal prostate was injected with 1×10^6 PC3M-Luc cells (975 photon/second/cell) in 30 μl (1:1 matrigel, Collaborative Biomedical Products, Bedford, Mass.). The peritoneal cavity was closed with 4-0 suture and skin incision was closed with clip.
In vivo bioluminescent image (BLI) was performed with an IVIS® Imaging System (Caliper Life Sciences, Hopkinton, Mass.). […] Images and measurements of bioluminescent signals were acquired and analyzed using Living Image® software (Caliper Life Sciences, Hopkinton, Mass.). Uniform region of interests (ROIs) were used across all groups and time points to achieve quantification of bioluminescent signal. […] The mice were then monitored with this system at weekly intervals. […]

[9] = Valproic acid and radiotherapy (FIG. 6)
[10] = target: T1, Recombinant Human Poly(ADP-Ribose) Polymerase (PARP) (Homo sapiens, UniProt P09874); test: PARP1 inhibition assay ([3H]-NAD+, biotinylated histone H1, FlashPlate/SPA); format: biochemical; details: from inhibition curves at various substrate concentrations
T1 construct: purchased Trevigen, Gaithersburg, Md; host or cells: E. coli
Procedure: Nicotinamide[2,5′,8-3H]adenine dinucleotide and strepavidin SPA beads were purchased from Amersham Biosiences (UK) Recombinant Human Poly(ADP-Ribose) Polymerase (PARP) purified from E. coli and 6-Biotin-17-NAD^+, were purchase from Trevigen, Gaithersburg, Md. NAD^+, Histone, aminobenzamide, 3-amino benzamide and Calf Thymus DNA (dcDNA) were purchased from Sigma, St. Louis, Mo. […] Biotinylated histone H1 was prepared by treating the protein with Sulfo-NHS-LC-Biotin from Pierce Rockford, Ill. […] Streptavidin coated (FlashPlate Plus) microplates were purchased from Perkin Elmer, Boston, Mass.
PARP1 assay was conducted in PARP assay buffer containing 50 mM Tris pH 8.0, 1 mM DTT, 4 mM MgCl2. […] 170 μl of the stopped reaction mixtures were transferred to streptavidin Flash Plates, incubated for 1 hr, and counted using a TopCount microplate scintillation counter.

[11] = system: HCT-116 tumors; test: HCT-116 tumors in nude mice, combination with radiotherapy; format: in vivo; details: combination with radiotherapy (2 Gy/day, 10 doses) vs radiotherapy or compound alone; 6.25, 12.5 or 25 mg/kg/day i.p. OMPs 14 days; FIG. 1
Procedure: This study was done in nude mice bearing HCT-116 tumors in the leg. Three days (−3) prior to the beginning of radiotherapy, mice were implanted i.p with OMPs delivering A-620223 at 0, 6.25, 12.5, or 25 mg/kg/day for 14 days. Starting day 0 mice received radiation treatment (2 Gy/day) for 10 doses alone or in combination with the 3 different doses of 2-(N-propylpiperidin-4-yl)benzimidazole-4-carboxamide.

T1 sequence (P09874 whole entry): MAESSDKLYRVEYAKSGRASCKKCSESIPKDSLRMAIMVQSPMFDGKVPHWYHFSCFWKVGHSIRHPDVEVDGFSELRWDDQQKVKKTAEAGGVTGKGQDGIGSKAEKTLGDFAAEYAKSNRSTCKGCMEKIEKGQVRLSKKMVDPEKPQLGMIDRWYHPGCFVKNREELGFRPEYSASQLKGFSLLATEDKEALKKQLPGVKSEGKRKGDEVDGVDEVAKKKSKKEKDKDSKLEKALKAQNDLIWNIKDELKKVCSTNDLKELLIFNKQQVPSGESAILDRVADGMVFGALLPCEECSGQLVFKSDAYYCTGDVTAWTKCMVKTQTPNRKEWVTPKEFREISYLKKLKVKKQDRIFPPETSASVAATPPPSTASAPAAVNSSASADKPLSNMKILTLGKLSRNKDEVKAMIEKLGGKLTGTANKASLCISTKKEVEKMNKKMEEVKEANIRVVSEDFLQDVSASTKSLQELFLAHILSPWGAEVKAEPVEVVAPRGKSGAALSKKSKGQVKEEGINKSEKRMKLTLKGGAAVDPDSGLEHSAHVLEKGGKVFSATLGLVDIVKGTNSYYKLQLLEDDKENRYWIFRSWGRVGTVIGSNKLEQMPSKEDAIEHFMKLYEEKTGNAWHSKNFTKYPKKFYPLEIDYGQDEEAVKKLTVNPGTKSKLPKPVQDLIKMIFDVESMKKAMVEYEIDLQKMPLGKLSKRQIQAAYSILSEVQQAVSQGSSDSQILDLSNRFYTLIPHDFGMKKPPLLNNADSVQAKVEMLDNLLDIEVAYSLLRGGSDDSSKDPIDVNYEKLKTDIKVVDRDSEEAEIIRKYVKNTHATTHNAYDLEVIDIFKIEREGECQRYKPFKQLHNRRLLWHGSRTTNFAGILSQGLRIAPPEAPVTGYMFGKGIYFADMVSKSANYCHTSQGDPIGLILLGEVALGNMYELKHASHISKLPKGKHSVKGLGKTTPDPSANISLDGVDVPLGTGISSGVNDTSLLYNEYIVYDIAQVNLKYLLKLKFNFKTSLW

In the case of `C[C@]1(c2nc3c(C(N)=O)cccc3[nH]2)CCCN1` [ABT-888, 2-[(2R)-2-methylpyrrolidin-2-yl]-1H-benzimidazole-4-carboxamide], the “survival to 300% tumor change endpoint” value [1] is reported as “profoundly improved survival compared to TMZ treatment alone”, the “potentiation of TMZ efficacy” value [2] is reported as “significantly potentates the TMZ efficacy in a dose dependent manner” and the “potentiation of carboplatin (tumor volumes)” value ([3]; A-861695 25 mg/kg/day s.c. OMPs 14 days + carboplatin 10 and 15 mg/kg/day) is reported as “pronounced potentiation of carboplatin”. For the same compound, the “potentiation of cisplatin activity” value [4] was “pronounced potentiation of cisplatin activity”, the “effect on toxicity of TMZ” value [5] was “enhancement of toxicity of TMZ” and the “effect on toxicity of TMZ (% mean body weight loss)” value [6] was “did not exacerbate the toxicity of TMZ”. The “Observations (toxicity assessment)” value ([7]; Scid female mice, same dosing) was “None”, the “efficacy at reducing the Mean Tumor Volume, alone” value [7] was “no efficacy” and the “blood brain barrier crossing” value (rat, in vivo) was “crosses the blood brain barrier”. The “effect of co-administration of TMZ on plasma PK profile” value (tumor-bearing rats) was “did not alter the plasma PK profile”.
In the case of `Cn1nnc2c(C(N)=O)ncn2c1=O` [TMZ, temozolomide], the “survival to 300% tumor change endpoint” value [1] is reported as “significantly increased survival”, the “Weight loss (Observations)” value ([1]; after last dose of 2nd cycle) is reported as greater than 10% after last and the Mortality ([1]; dead/total mice) is reported as 0/11. For the same compound, the “efficacy after first treatment schedule (day 30)” value [8] was “significantly better than their vehicles”, the “Observations (toxicity assessment)” value ([7]; female, Scid, mouse, in vivo) was “Slight” and the “efficacy at reducing the Mean Tumor Volume, alone” value [7] was “no efficacy”.
For `CCCC(CCC)C(=O)O` [valproic acid], the effect on radiotherapy [9] was “can enhance the effects of radiotherapy”.
For `CCCN1CCC(c2nc3cccc(C(N)=O)c3[nH]2)CC1` [2-(N-propylpiperidin-4-yl)benzimidazole-4-carboxamide], the Ki [10] was 8.6 nM and the “reduction of tumor size” value [11] was “significant improvement in the reduction of tumor size”.
For `N.N.O=C([O-])C1(C(=O)[O-])CCC1.[Pt+2]` [carboplatin], the “tumor inhibition as a single agent” value ([3]; carboplatin 5, 10, 15 mg/kg/day i.p. day 20, 24, 27, FIG. 4) was “dose-dependent tumor inhibition” and the “tumor volume course, monotherapy” value ([3]; carboplatin monotherapy 10 mg/kg/day) was “only delayed tumor growth”.
For `CC1(c2nc3c(C(N)=O)cccc3[nH]2)CN(C2CCOCC2)C1` [2-(3-methyl-1-tetrahydro-2H-pyran-4-ylazetidin-3-yl)-1H-benzimidazole-4-carboxamide], the Ki [10] was 12.7 nM.
`CC1(c2nc3c(C(N)=O)cccc3[nH]2)CCN1C1CCCC1` (stereo not drawn) [2-(1-cyclopentyl-2-methylazetidin-2-yl)-1H-benzimidazole-4-carboxamide] gave a Ki [10] of 31.1 nM.
`CC1(c2nc3c(C(N)=O)cccc3[nH]2)CCN1C1CCCCC1` (stereo not drawn) [2-(1-cyclohexyl-2-methylazetidin-2-yl)-1H-benzimidazole-4-carboxamide] showed a Ki [10] of 27.7 nM.
